Structures are written as SMILES. pKd: −log10 of the molar value.

This passage reports affinity, paramagnetic relaxation enhancement and Kd results from patent US20090239760A1, “Method for the Identification of New Leads for Drug Candidates” (UNIVERSITY OF BASEL, priority 2006, published 2009).

Test [1] has as its target T1, Fc-MAG(d1-3) (Mus musculus, UniProt P20917).
T1 sequence (P20917 20-325 limits assumed): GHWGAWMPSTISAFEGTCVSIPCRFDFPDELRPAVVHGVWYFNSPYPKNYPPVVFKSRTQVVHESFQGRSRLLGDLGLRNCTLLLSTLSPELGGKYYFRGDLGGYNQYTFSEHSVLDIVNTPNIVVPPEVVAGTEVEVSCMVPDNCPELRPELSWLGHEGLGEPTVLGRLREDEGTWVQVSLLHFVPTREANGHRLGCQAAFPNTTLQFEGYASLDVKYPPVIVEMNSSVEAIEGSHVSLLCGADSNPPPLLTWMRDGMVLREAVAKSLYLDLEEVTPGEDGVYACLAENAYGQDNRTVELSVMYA
As to the kind of experiment: surface plasmon resonance (BIACORE 3000), Fc-MAG(d1-3) immobilized by protein A. It is filed as binding, murine. On the procedure: For the in situ click chemistry experiment (Lewis, 2002; Bourne, 2004; […], 2005), Fc-MAG(d1-3) (Crocker, 1996) (8.77 μM) was incubated with a mixture of the four substituted first-site ligands 14a-d (each 40 μM) and the two substituted second-site ligands 22, 26 (each 800 μM) in phosphate buffer (pH 7.4) at 37° C. for 24 h. The different concentrations of the first- and second-site ligands reflect their affinities in the low micro- and millimolar range. […] To exclude that false positives are formed during incubation, two control experiments were performed. In the first, MAG was replaced by bovine serum albumin. In the second, no protein was added. In both experiments, no triazole formation could be observed. The protein included the Fc portion of human immunoglobulin IgG1 and the three N-terminal domains of murine MAG (for its preparation, see Crocker & Kelm (1996)). […] The KD analyses were performed at 25° C. on a BIACORE 3000 surface plasmon resonance-based optical biosensor (Biacore AB, Uppsala, Sweden). Protein A (Sigma, Basel) was immobilized onto a CM5 sensor chip (Biacore AB, research grade) using standard amine coupling. All data processing and equilibrium binding constant determinations were accomplished with Scrubber© (BioLogic Software, Campbell, Australia, Version 1.1g). […] The equilibrium binding constants KD were calculated using a 1:1 binding model. […]

Test [2] deals with T2, MAG (Mus musculus, UniProt P20917).
T2 sequence (P20917 20-627): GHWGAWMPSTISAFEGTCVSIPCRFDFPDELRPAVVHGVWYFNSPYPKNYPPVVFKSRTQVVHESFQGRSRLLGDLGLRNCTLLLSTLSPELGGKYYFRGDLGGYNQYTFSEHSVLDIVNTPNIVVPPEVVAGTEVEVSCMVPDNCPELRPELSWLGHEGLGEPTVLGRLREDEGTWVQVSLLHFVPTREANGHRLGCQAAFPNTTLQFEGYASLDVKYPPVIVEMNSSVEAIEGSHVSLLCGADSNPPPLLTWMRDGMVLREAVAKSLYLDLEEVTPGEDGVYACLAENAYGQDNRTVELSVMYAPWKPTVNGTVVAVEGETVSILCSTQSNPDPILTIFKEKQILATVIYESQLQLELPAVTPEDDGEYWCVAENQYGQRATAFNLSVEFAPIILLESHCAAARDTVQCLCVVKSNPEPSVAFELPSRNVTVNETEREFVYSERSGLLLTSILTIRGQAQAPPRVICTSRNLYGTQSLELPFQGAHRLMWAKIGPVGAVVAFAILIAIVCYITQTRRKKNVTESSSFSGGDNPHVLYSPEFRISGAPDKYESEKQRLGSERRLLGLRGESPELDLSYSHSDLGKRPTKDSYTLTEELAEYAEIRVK
As to the kind of experiment: NMR second-site screening with spin-labeled first-site ligand 2 (Jahnke method). Particulars: H-NMR in the presence of spin-labeled analogue 2; indicates binding proximate (radius of 15 to 20 Å) to the Tempo spin label.
Text: Second-site ligands that are affected by the initial lead can be detected in different ways, including NMR based methods that involve, e.g. spin labeling the initial lead. […] Jahnke's method detects the paramagnetic relaxation enhancement on a second ligand caused by a spin-labeled first ligand. The method allows for the detection of “true” second-site ligands, which are ligands that bind to the target (1) simultaneously with and (2) in the proximity of the first ligand (“second-site screening”).
Members of a library composed of 60 divers or sub-libraries thereof, which are drug-like, soluble and synthetically easily available fragments (“second-site ligands”) binding to the target protein were identified based on their shorter relaxation time in H-NMR.

As for `O=[N+]([O-])c1ccc2[nH]ccc2c1` [compound 15, 5-nitro-1H-indole], the affinity entry in test [1] (surface plasmon resonance experiment) was “low millimolar range”. Also, the paramagnetic relaxation enhancement result in test [2] is “enhanced relaxation was observed”. Broadly, the pKd is the negative decadic logarithm of the Kd, by convention in mol/L. The molecule `CC(=O)NC1C(O)CC(OCc2cn(CCCc3c[nH]c4ccc([N+](=O)[O-])cc34)nn2)(C(=O)O)OC1C(O)C(O)CNC(=O)c1ccccc1` [compound 27, 1-(5-nitro-1H-indol-3-yl-propyl)-4-{sodium [5-acetamido-9-benzamido-3,5,9-trideoxy-D-glycero-α-D-galacto-2-nonulopyranosynate-2-O-yl}-methyl-1,2,3]-triazole] had a pKd in test [1] (SPR, Fc-MAG(d1-3) immobilized by protein A, 25° C., 1:1 binding model) of 6.72.
